Assay results as given in PMC10969742, “A Phase I Study of the Oral Dual-Acting Pan-PI3K/mTOR Inhibitor Bimiralisib in Patients with Advanced Solid Tumors” (Cancers, 2024).
Read-outs that look alike come from different tables or passages of the source.

System: patients with advanced solid tumors
Assay type: in vivo
Procedure: This was a Phase 1, open-label, multi-center, non-randomized, dose escalation study evaluating DLTs, tolerability, PK, and preliminary efficacy of bimiralisib in the treatment of patients with advanced solid tumors for which no standard curative or life-prolonging therapy is available. This study was conducted in the US (MD Anderson Cancer Center, Houston; Mayo Clinic Rochester; Roswell Park Comprehensive Cancer Center, Buffalo; University Hospitals of Cleveland), Spain (Vall Hebron University Hospital), Switzerland (Basel University Hospital), and UK (University College London Hospitals NHS Trust and Oxford Universities NHS Trust).
The primary objective of the study was to determine the MTD of bimiralisib administered according to three different dosing schedules. Bimiralisib was formulated as 20 mg and 80 mg capsules for oral administration. The first dosing schedule to be evaluated was continuous (once daily) dosing over a 21-day cycle. […] Patients enrolled in the continuous schedule and intermittent schedule A received a single lead-in dose, administered on […] prior to the start of the first 21-day treatment cycle, to characterize single-dose pharmacokinetics. Based on the previous first-in-human trial with bimiralisib, together with the expected toxicity profile of PI3K/mTOR inhibitors, the starting dose (dose-level 1) of bimiralisib in Study PQR309-003 was set at 80 mg daily.
Safety was monitored by physical examination, vital signs, weight, electrocardiogram, ECOG performance status, laboratory evaluations (including glucose monitoring), and patient self-reported mood questionnaires, as well as AEs. All AEs were coded with NCI Common Terminology Criteria for Adverse Events (CTCAE) v4.03 [27]. The MTD was defined as the maximum dose level at which ≤1/6 patients have DLTs. A DLT was defined by the occurrence of grade 3 or 4 AE that is possibly, probably, or definitely related to bimiralisib within the first 21 days of treatment. Bimiralisib treatment was interrupted if patients experienced any DLTs. If the patient derived benefit from the treatment as determined by the investigator, treatment could be resumed at a lower dose in agreement with the study sponsor.
Patients were discontinued from trial if they had evidence of clinical, symptomatic, or radiographic disease progression or relapse, unacceptable drug related AEs, non-compliance to the protocol, voluntary withdrawal, or pregnancy. Treatment compliance was established with patient diaries and records of medication used and dosages administered.
Descriptive statistics were used to present the data. Categorical data were summarized in contingency tables presenting frequencies and percentages. Continuous data were summarized using the number of non-missing values (n), mean, standard deviation (SD), median, Q1, Q3, minimum and maximum values, as appropriate. Data were analyzed using SAS. No tests of significance were planned to compare study treatment groups on baseline data. The efficacy and safety analysis set comprised all patients who receive ≥1 dose of bimiralisib.

For `Nc1cc(C(F)(F)F)c(-c2nc(N3CCOCC3)nc(N3CCOCC3)n2)cn1` [bimiralisib, 5-(4,6-Dimorpholino-1,3,5-triazin-2-yl)-4-(trifluoromethyl)pyridin-2-amine], the “Any TEAE” value (Continuous (n = 21)) was 21 (100) n (%), the “Any drug-related AE” value (Continuous (n = 21)) was 21 (100) n (%) and the “Any drug-related grade ≥ 3 AE” value (Continuous (n = 21)) was 11 (52.4) n (%). For the same molecule, the “Any drug-related serious AE” value (Continuous (n = 21)) was 2 (10) n (%), the “Any grade ≥ 3 TEAE” value (Continuous (n = 21)) was 17 (81) n (%) and the “Any serious AE” value (Continuous (n = 21)) was 9 (43) n (%). The “Common TEAE: ALT elevation” value (Continuous (n = 21)) was 1 (4.76) n (%), the “Common TEAE: Abdominal pain” value (Continuous (n = 21)) was 1 (4.76) n (%) and the “Common TEAE: Anemia” value (Continuous (n = 21)) was 0 (0) n (%). For the same molecule, the “Common TEAE: Anxiety” value (Continuous (n = 21)) was 5 (23.8) n (%), the “Common TEAE: Ascites” value (Continuous (n = 21)) was 0 (0) n (%) and the “Common TEAE: Asthenia” value (Continuous (n = 21)) was 6 (28.6) n (%). The “Common TEAE: Back pain” value (Continuous (n = 21)) was 4 (19.1) n (%), the “Common TEAE: Cachexia” value (Continuous (n = 21)) was 4 (19.1) n (%) and the “Common TEAE: Cough” value (Continuous (n = 21)) was 2 (9.5) n (%). The “Common TEAE: Decreased appetite” value (Continuous (n = 21)) was 11 (52.4) n (%), the “Common TEAE: Dehydration” value (Continuous (n = 21)) was 6 (28.6) n (%) and the “Common TEAE: Depression” value (Continuous (n = 21)) was 5 (23.8) n (%). The “Common TEAE: Diarrhea” value (Continuous (n = 21)) was 10 (47.6) n (%), the “Common TEAE: Disturbance attention” value (Continuous (n = 21)) was 11 (52.4) n (%) and the “Common TEAE: Dry Mouth” value (Continuous (n = 21)) was 10 (47.6) n (%). For the same molecule, the “Common TEAE: Dry skin” value (Continuous (n = 21)) was 7 (33.3) n (%), the “Common TEAE: Dysgeusia” value (Continuous (n = 21)) was 4 (19.1) n (%) and the “Common TEAE: Dyspepsia” value (Continuous (n = 21)) was 1 (4.76) n (%). For the same molecule, the “Common TEAE: Dyspnea” value (Continuous (n = 21)) was 4 (19.1) n (%), the “Common TEAE: Fatigue” value (Continuous (n = 21)) was 13 (61.9) n (%) and the “Common TEAE: Headache” value (Continuous (n = 21)) was 0 (0) n (%). For the same molecule, the “Common TEAE: Hyperglycemia” value (Continuous (n = 21)) was 16 (76.2) n (%), the “Common TEAE: Hyperinsulinemia” value (Continuous (n = 21)) was 7 (33.3) n (%) and the “Common TEAE: Hyperkalemia” value (Continuous (n = 21)) was 0 (0) n (%). For the same molecule, the “Common TEAE: Hyperphosphatasemia” value (Continuous (n = 21)) was 1 (4.76) n (%), the “Common TEAE: Hypokalemia” value (Continuous (n = 21)) was 6 (28.6) n (%) and the “Common TEAE: Irritability” value (Continuous (n = 21)) was 0 (0) n (%). For the same molecule, the “Common TEAE: Malaise” value (Continuous (n = 21)) was 4 (19.1) n (%), the “Common TEAE: Mucosal Inflammation” value (Continuous (n = 21)) was 0 (0) n (%) and the “Common TEAE: Neck pain” value (Continuous (n = 21)) was 0 (0) n (%). The “Common TEAE: Pruritus” value (Continuous (n = 21)) was 6 (28.6) n (%), the “Common TEAE: Rash” value (Continuous (n = 21)) was 4 (19.1) n (%) and the “Common TEAE: Tachycardia” value (Continuous (n = 21)) was 4 (19.1) n (%). The “Common TEAE: Upper respiratory tract infection” value (Continuous (n = 21)) was 1 (4.76) n (%), the “Common TEAE: Vomiting” value (Continuous (n = 21)) was 10 (47.6) n (%) and the “Common TEAE: Weight decrease” value (Continuous (n = 21)) was 11 (52.4) n (%). The “Grade ≥ 3 TEAE: ALT elevation” value (Continuous (n = 21)) was 1 (4.8) n (%), the “Grade ≥ 3 TEAE: Dehydration” value (Continuous (n = 21)) was 4 (19) n (%) and the “Grade ≥ 3 TEAE: Fatigue” value (Continuous (n = 21)) was 7 (33.3) n (%). For the same molecule, the “Grade ≥ 3 TEAE: Hyperglycemia” value (Continuous (n = 21)) was 6 (28.6) n (%), the “Patients discontinuing study due to AE” value (Continuous (n = 21)) was 5 (24.0%) n (%) and the “Study discontinuation due to AE: Dehydration” value (Continuous (n = 21)) was 2 (9.5%) n (%). For the same molecule, the “Study discontinuation due to AE: Ejection Fraction decreased” value (Continuous (n = 21)) was 1 (4.8%) n (%), the “Study discontinuation due to AE: Fatigue” value (Continuous (n = 21)) was 3 (14.3%) n (%) and the “Study discontinuation due to AE: Tumor pain” value (Continuous (n = 21)) was 1 (4.8%) n (%). For the same molecule, the Treatment-related death (Continuous (n = 21)) was 0 (0) n (%), the “Common TEAE: Upper respiratory tract infection” value (Intermittent A, n = 25) was 3 (12) n (%) and the “Study discontinuation due to AE: Urinary Tract Infection” value (Intermittent A, n = 25) was 1 (4.0%) n (%). The Treatment-related death (Intermittent A, n = 25) was 0 (0) n (%), the “Common TEAE: Upper respiratory tract infection” value (Intermittent B, n = 24) was 1 (4.2) n (%) and the Treatment-related death (Intermittent B, n = 24) was 0 (0) n (%). For the same molecule, the “Common TEAE: Upper respiratory tract infection” value (Total n = 70) was 5 (7.1) n (%), the “Study discontinuation due to AE: Urinary Tract Infection” value (Total n = 70) was 1 (1.4%) n (%) and the Treatment-related death (Total n = 70) was 0 (0) n (%). For the same molecule, the “Patients who died during the study” value (all patients, 19 patients) was 27.1%, the “Grade > 3 TEAE fatigue, frequency” value (continuous dosing) was 33.3% and the “Grade > 3 TEAE hyperglycemia, frequency” value (continuous dosing) was 28.6%. For the same molecule, the “Patients experiencing Grade > 3 TEAEs” value (continuous dosing) was 81%, the “Patients who discontinued due to treatment-related fatigue” value (continuous dosing) was 2 patients and the “Patients who discontinued the study due to AEs” value (continuous dosing) was 5 patients. The “Treatment-emergent AE hyperglycemia, frequency” value (continuous schedule) was 76.2%, the “Dose reduction due to TEAEs” value (continuous schedule, n = 2) was 10% and the “Dose interruption due to TEAEs” value (continuous schedule, n = 11) was 52%. The “Discontinued study treatment: AEs” value (human, in vivo) was 12.9%, the “Grade > 3 TEAE hyperglycemia, frequency” value (human, in vivo) was 12.5% and the “Patients experiencing one or more TEAEs” value (human, in vivo) was 99%. The “Patients reporting one or more serious adverse events (SAEs)” value (human, in vivo) was 40%, the “Patients who discontinued due to treatment-related fatigue” value (human, in vivo) was 1 patients and the “Patients who discontinued the study due to AEs” value (human, in vivo) was 3 patients. The “Patients with TEAEs related to the study drug” value (human, in vivo) was 91%, the “SAEs considered related to study drug” value (human, in vivo) was 6% and the “Study discontinuation due to AE: Dehydration” value (human, in vivo) was 2 (2.8%) n (%). For the same molecule, the “Study discontinuation due to AE: Ejection Fraction decreased” value (human, in vivo) was 1 (1.4%) n (%), the “Study discontinuation due to AE: Tumor pain” value (human, in vivo) was 1 (1.4%) n (%) and the “Treatment-emergent AE nausea, frequency” value (human, in vivo) was 56–62.5%. The “Patients who discontinued due to AEs considered to be treatment-related” value (in vivo) was “five”, the “SAEs considered related to study drug, number” value (in vivo) was “two” and the “Grade > 3 TEAE fatigue, frequency” value (intermittent schedule A) was 0%. The “Grade > 3 TEAE hyperglycemia, frequency” value (intermittent schedule A) was 12%, the “Patients experiencing Grade > 3 TEAEs” value (intermittent schedule A) was 56% and the “Patients who discontinued the study due to AEs” value (intermittent schedule A) was 1 patients. The “SAEs considered related to study drug, number” value (intermittent schedule A) was “zero”, the “Dose reduction due to TEAEs” value (intermittent schedule A, n = 0) was 0% and the “Dose interruption due to TEAEs” value (intermittent schedule A, n = 9) was 36%. For the same molecule, the “Grade > 3 TEAE fatigue, frequency” value (intermittent schedule B) was 8.3%, the “SAEs considered related to study drug, number” value (intermittent schedule B (diarrhea and hyperglycemia)) was “two” and the “Dose reduction due to TEAEs” value (intermittent schedule B, n = 1) was 4%. For the same molecule, the “Dose interruption due to TEAEs” value (intermittent schedule B, n = 9) was 38%, the “Deaths due to disease progression” value (of 19 deaths during the study) was 16 patients and the “Deaths due to other reasons unrelated to bimiralisib (vessel rupture, sepsis, new small cell carcinoma)” value (of 19 deaths during the study) was 3 patients.
